# Legend:
# Beta-secretase 1 [1] = biological target: T1, Beta-secretase 1 (Homo sapiens, UniProt P56817)
# Cathepsin D = Cathepsin D (Homo sapiens, UniProt P07339)
# Description: Inhibition of human cathepsin D
# Beta-secretase 1 [2] = biological target: T1, Beta-secretase 1; remark: listed apart in the source
# Description: Inhibition of BACE1 in human neuroblastoma cells
# T1 sequence (P56817 whole entry): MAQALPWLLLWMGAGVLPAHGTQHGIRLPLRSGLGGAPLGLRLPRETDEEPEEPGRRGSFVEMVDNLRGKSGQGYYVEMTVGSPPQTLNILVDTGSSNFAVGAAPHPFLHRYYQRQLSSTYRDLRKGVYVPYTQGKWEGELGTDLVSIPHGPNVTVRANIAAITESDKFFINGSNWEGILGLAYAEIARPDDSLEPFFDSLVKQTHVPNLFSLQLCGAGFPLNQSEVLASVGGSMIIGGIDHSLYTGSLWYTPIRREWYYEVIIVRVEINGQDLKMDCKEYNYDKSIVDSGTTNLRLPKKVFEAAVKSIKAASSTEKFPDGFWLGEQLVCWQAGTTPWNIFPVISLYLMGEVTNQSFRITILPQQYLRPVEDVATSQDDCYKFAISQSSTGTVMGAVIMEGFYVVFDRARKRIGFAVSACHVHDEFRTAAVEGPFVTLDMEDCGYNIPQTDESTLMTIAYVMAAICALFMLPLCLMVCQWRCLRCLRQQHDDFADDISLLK
# Cathepsin D, sequence (P07339 65-162 limits assumed): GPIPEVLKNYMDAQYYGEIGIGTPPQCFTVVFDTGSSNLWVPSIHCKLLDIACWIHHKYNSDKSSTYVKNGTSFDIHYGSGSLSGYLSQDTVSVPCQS
# Cathepsin D, sequence (P07339 169-412 limits assumed): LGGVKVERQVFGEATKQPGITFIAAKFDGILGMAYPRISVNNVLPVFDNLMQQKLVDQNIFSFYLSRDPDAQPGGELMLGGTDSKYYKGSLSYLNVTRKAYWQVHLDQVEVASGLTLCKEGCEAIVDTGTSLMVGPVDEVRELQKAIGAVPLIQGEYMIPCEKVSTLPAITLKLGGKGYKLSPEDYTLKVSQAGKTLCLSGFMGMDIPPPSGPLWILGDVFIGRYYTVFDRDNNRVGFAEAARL
Ki (Beta-secretase 1 [1]),Ki (Cathepsin D),IC50 (Beta-secretase 1 [2]),SMILES
> 1000 nM,,,CC(C)CNC[C@@H](NC[C@H](Cc1ccccc1)NC(=O)c1cc(C(=O)N[C@H](C)c2ccccc2)cc(N(C)S(C)(=O)=O)c1)[C@H](C)O
0.47 nM,2000 nM,14 nM,CCC[C@H](O)[C@H](NC[C@H](Cc1ccccc1)NC(=O)c1cc2c3c(c1)c(CC)cn3CC1(CC1)S(=O)(=O)N2C)C(=O)NC(C)C
